{
  "source": "paper PMC7782687",
  "about": "“Insights into SusCD-mediated glycan import by a prominent gut symbiont” (Nature Communications, 2021)",
  "molecules": {"B1": {"name": "Bt1762 (SusD) of the Bacteroides thetaiotaomicron levan utilisation locus, with C-terminal His6 tag (natural protein, UniProt Q8A6W4 19-570, looked up)", "chain": "CDDFLDRQVPQGIVTGDQIASPEYVDNLVISAYAIWATGDDINSSFSLWNYDVRSDDCYKGGSGTEDGGVFNALEISKGINTTDWNINDIWKRLYQCITRANTALQSLDQMDEKTYPLKNQRIAEMRFLRGHAHFMLKQLFKKIVIVNDENMEPDAYNELSNTTYTNDEQWQKIADDFQFAYDNLPEVQIEKGRPAQAAAAAYLAKTYLYKAYRQDGADNALTGINEEDLKQVVKYTDPLIMAKGGYGLETDYSMNFLPQYENGAESVWAIQYSINDGTYNGNLNWGMGLTTPQILGCCDFHKPSQNLVNAFKTDSQGKPLFSTYDNENYEVATDNVDPRLFHTVGMPGFPYKYNEGYIIQKNDDWSRSKGLYGYYVSLKENVDPDCDCLKKGSYWASSLNHIVIRYADVLLMRAEALIQLNDGRITDAISLINEVRSRAAGSTMLIFNYKEDYGVNFKVTPYDLKAYAQDEAMKMLKWERRVEFGMESSRFFDLVRWGEAKDVINAYYVTEASRCSIYKNAGFTENKNEYLPVPFEQISASNGNYTQNFGW", "modifications": "lipid anchor (lipoprotein)", "notes": "numbers count on: the mature protein; His6 tag is chromosomal; also called SusD lid; WT (Bt1762-his strain); source: B. thetaiotaomicron VPI-5482 (Bt1762-his strain) grown on MM fructose; outer membrane extracted with LDAO; purified with Bt1763 (IMAC, SEC); not shown: His6, C-terminal, kept"}, "B2": {"name": "Bt1762-Bt1763 SusCD complex (complex, Bacteroides thetaiotaomicron)", "chain 1": "B1 chain", "chain 2": "GQNITVKGNVTSKTDGQPIIGASVVETTATTNGTITDFDGNFTLSVPVNSTLKITYIGYKPVTVKAAAIVNVLLEEDTQMVDEVVVTGYTTQRKADLTGAVSVVKVDEIQKQGENNPVKALQGRVPGMNITADGNPSGSATVRIRGIGTLNNNDPLYIIDGVPTKAGMHELNGNDIESIQVLKDAASASIYGSRAANGVIIITTKQGKKGQIKINFDASVSASMYQSKMNVLNTEQYGRAMWQAYVNDGENPNGNALGYAYNWGYNADGNPVLYGMTLSKYLDSKNTMPVADTDWFDEITRTGVIQQYNLSVSNGSEKGSSFFSLGYYKNLGVIKDTDFDRFSARMNSDYKLIDDILTIGQHFTLNRTSEVQAPGGIIETALDIPSAIPVYASDGSWGGPVGGWPDRRNPRAVLEYNKDNRYTYWRMFGDAYVNLTPFKGFNLRSTFGLDYANKQARYFTYPYQEGTQTNNGKSAVEAKQEHWTKWMWNAIATYQLEVGKHRGDVMIGMELNREDDSHFSGYKEDFSILTPDYMWPDAGSGTAQAYGAGEGYSLVSFFGKMNYSYADRYLLSLTLRRDGSSRFGKNHRYATFPSVSLGWRITQENFMKELTWLDDLKLRASWGQTGNQEISNLARYTIYAPNYGTTDSFGGQSYGTAYDITGSNGGGVLPSGFKRNQIGNDNIKWETTTQTNVGIDFSLFKQSLYGSLEYYYKKATDILTEMAGVGVLGEGGSRWINSGAMKNQGFEFNLGYRNKTAFGLTYDLNGNISTYRNEILELPETVAANGKFGGNGVKSVVGHTYGAQVGYIADGIFKSQDEVDNHATQEGAAVGRIRYRDIDHNGVIDERDQNWIYDPTPSFSYGLNIYLEYKNFDLTMFWQGVQGVDIISDVKKKSDFWSASNVGFLNKGTRLLNAWSPTNPNSDIPALTRSDTNNEQRVSTYFVENGSFLKLRNIQLGYTVPAVISKKMRMDRLRFYCSAQNLLTIKSKNFTGEDPENPNFSYPIPVNITFGLNIGF", "modifications": "lipid anchor (lipoprotein)", "notes": "Bt1762 (SusD), Bacteroides thetaiotaomicron VPI-5482; as m1; numbers count on: the mature protein; Bt1763 (SusC), Bacteroides thetaiotaomicron VPI-5482; as m2; One SusCD unit (one Bt1762, one Bt1763); two such units form the SusC2D2 dimer; also called Bt1762-63; BT1762-63; source: B. thetaiotaomicron VPI-5482 (Bt1762-his strain) grown on MM fructose; outer membrane extracted with LDAO; purified …"}},
  "key": {"B. theta Δ1760 strain": {"test_system": "B. theta Δ1760 strain", "test": "Growth of Δ1760 (surface endo-levanase deletion) strain on levans from different sources", "assay_type": "cell-based, Bacteroides thetaiotaomicron", "details": "minimal media, anaerobic, 37 °C, replicates 1-3, single wells", "method": "Growth curves were performed in an Epoch microplate spectrometer (Biotek Instruments Ltd) with 96-well Costar culture plate (Sigma-Aldrich) inside an anaerobic cabinet at 37 °C (Don Whitley Scientific, A35 workstation). Media were inoculated 1:10 with bacterial cultures previously grown overnight in BHI. Final culture volumes of 200 µl were used, and each condition was performed in triplicate. Optical density at 600 nm was measured in each well at 30 min intervals.\nIn most cases, the levan used was from Erwinia herbicola (Sigma). For analysis of the growth of the Δ1760 strain, bacterial levans from Bacillus sp. (Montana Polysaccharides) and Zymomonas mobilis[64] (a kind gift from Prof. Dr. Yekta Göksunger, Ege University, Izmir, Turkey) were also used, as well as levan from Timothy grass (Megazyme) and in vitro synthesised levan. In vitro synthesised levan was made using Bacillus subtilis levansucrase incubated with 20% sucrose in PBS for 24 h at 37 °C. Proteinase K (100 µg/ml) was then added to remove the protein, before being precipitated out using 0.5% trichloroacetic acid final. The levan was then extensively dialysed against water and freeze dried."}, "[1]": {"target": "T1, Bt1763 (SusC) TonB-dependent transporter of the Bacteroides thetaiotaomicron levan utilisation locus (Bacteroides thetaiotaomicron, UniProt Q8A6W3 26-1041)", "T1 construct": "Bt1763 (SusC), TonB-dependent transporter of the levan PUL, Bacteroides thetaiotaomicron VPI-5482; numbers count on: the mature protein; In closed states seen by cryo-EM the plug domain has no density; source: endogenous, B. thetaiotaomicron VPI-5482 (Bt1762-his strain) grown on MM fructose; outer membrane extracted with LDAO; purified with His-tagged Bt1762 (IMAC, SEC)", "T1 sequence (looked up)": "B2 chain 2", "test": "crystal structure; Bt1762-63 purified from B. theta outer membranes, in 0.4% C8E4; apo and with 2.5 mM β2,6 FOS; 0.15 M sodium formate, 0.1 M HEPES pH 7-7.5, 16-20% PEG 3350", "details": "both partners purified"}, "[2]": {"target": "the molecule itself", "test": "crystal structure; Bt1762-63 purified from B. theta outer membranes, in 0.4% C8E4; apo and with 2.5 mM β2,6 FOS; 0.15 M sodium formate, 0.1 M HEPES pH 7-7.5, 16-20% PEG 3350"}},
  "note": "Several values for one entry are separate records, joined by “and”; a condition that tells them apart may be missing. Equal values may be shown once.",
  "data": [
    {"molecule": "O=C(CO)C(O)C(O)C(O)CO", "note": "(centres unmarked) [Frc]", "values": [
      {"measurement": "Optical density at 600 nm", "setting": "B. theta Δ1760 strain; time 00:00:00, carbon source 0.5 %", "value": "0.303 and 0.324 and 0.321 and 0.418 and 0.289 and 0.311 and 0.334 and 0.296 and 0.325"},
      {"measurement": "Optical density at 600 nm", "setting": "B. theta Δ1760 strain; time 00:30:00, carbon source 0.5 %", "value": "0.171 (2×) and 0.174 (2×) and 0.172 (2×) and 0.177 and 0.173 and 0.181"},
      {"measurement": "Optical density at 600 nm", "setting": "B. theta Δ1760 strain; time 01:00:00, carbon source 0.5 %", "value": "0.178 (2×) and 0.179 (2×) and 0.177 (2×) and 0.18 (2×) and 0.182"},
      {"measurement": "Optical density at 600 nm", "setting": "B. theta Δ1760 strain; time 01:30:00, carbon source 0.5 %", "value": "0.186 and 0.189 (2×) and 0.187 (2×) and 0.188 (2×) and 0.184 and 0.19"},
      {"measurement": "Optical density at 600 nm", "setting": "B. theta Δ1760 strain; time 02:00:00, carbon source 0.5 %", "value": "0.194 and 0.197 and 0.196 (2×) and 0.199 (2×) and 0.191 and 0.202 and 0.198"},
      {"measurement": "Optical density at 600 nm", "setting": "B. theta Δ1760 strain; time 02:30:00, carbon source 0.5 %", "value": "0.203 and 0.21 and 0.212 and 0.211 and 0.198 and 0.204 and 0.215 and 0.206 and 0.214"},
      {"measurement": "Optical density at 600 nm", "setting": "B. theta Δ1760 strain; time 03:00:00, carbon source 0.5 %", "value": "0.211 and 0.217 and 0.232 and 0.225 and 0.205 and 0.212 and 0.229 and 0.214 and 0.226"},
      {"measurement": "Optical density at 600 nm", "setting": "B. theta Δ1760 strain; time 03:30:00, carbon source 0.5 %", "value": "0.22 and 0.224 (2×) and 0.261 and 0.24 (2×) and 0.214 and 0.221 and 0.255"},
      {"measurement": "Optical density at 600 nm", "setting": "B. theta Δ1760 strain; time 04:00:00, carbon source 0.5 %", "value": "0.228 and 0.23 (2×) and 0.304 and 0.261 (2×) and 0.22 and 0.234 and 0.284"},
      {"measurement": "Optical density at 600 nm", "setting": "B. theta Δ1760 strain; time 04:30:00, carbon source 0.5 %", "value": "0.233 and 0.24 and 0.355 and 0.279 and 0.223 and 0.252 and 0.313 and 0.238 and 0.283"},
      {"measurement": "Optical density at 600 nm", "setting": "B. theta Δ1760 strain; time 05:00:00, carbon source 0.5 %", "value": "0.238 and 0.259 and 0.442 and 0.309 and 0.227 and 0.278 and 0.351 and 0.243 and 0.306"},
      {"measurement": "Optical density at 600 nm", "setting": "B. theta Δ1760 strain; time 05:30:00, carbon source 0.5 %", "value": 0.249}
    ]},
    {"molecule": "B1", "values": [
      {"measurement": "binding result", "setting": "[1]", "value": "binds"}
    ]},
    {"molecule": "B2", "values": [
      {"measurement": "stoichiometry N", "setting": "[2]", "value": 2}
    ]}
  ]
}
